This note sets out measurements from patent US9132134B2, “Methods for treating GI tract disorders” (Neurogastrx, Inc., priority 2012, dated 2015).

Structures are written as SMILES. Values joined by “and” are separate entries in the source; they are usually repeats but may differ in a detail not shown here. Identical values can stand only once. Bounds are passed on as bounds.

Data set [1] concerns the target dopamine D2 receptor (Homo sapiens (Human), UniProt P14416). Kind of data set: Radioligand binding assay, [3H]spiperone, membranes of D2 receptor expressing cells. As to conditions: [3H]spiperone competition; read-out: Radioligand Binding Affinity (Ki, nM) D2.
Data set [2] concerns the target D3 (Homo sapiens (Human), UniProt P35462). The data set is described as follows: Radioligand binding affinity, D3.
Data set [3] addresses α1. Kind of data set: Radioligand binding affinity, α1.
Data set [4] has as its target 5HT2. Kind of data set: Radioligand binding affinity, 5HT2.
Data set [5] concerns the target 5HT3 (Homo sapiens (Human), UniProt P46098). The data set is described as follows: Radioligand binding affinity, 5HT3.
The target of data set [6] is 5HT4 (Homo sapiens (Human), UniProt Q13639). Kind of data set: Radioligand binding affinity, 5HT4.
Data set [7] deals with H1 (Homo sapiens (Human), UniProt P35367). Kind of data set: Radioligand binding affinity, H1.
Data set [8] deals with hERG channel (Homo sapiens (Human), UniProt Q12809). Kind of data set: hERG voltage clamp assay in hERG-expressing cultured cells. Type of data set: cell-based. As to conditions: for inhibition at 0.1 µM / inhibition at 1 µM / inhibition at 10 µM: human, hERG-expressing cultured cells, read-out: hERG Activity (% Inhibition of Tail Current); for inhibition at 0.1 µM: 100 nM; for IC50: read-out: concentration necessary to inhibit 50% of the tail currents mediated by hERG channels. (Block of hERG is tested as a sign of cardiac risk.)

The test system of data set [9] is canine cardiac action potentials. Kind of data set: Canine cardiac action potentials by electrocardiography and telemetry. Type of data set: in vivo. As to conditions: dogs; for QTc intervals as compared to vehicle-administered animals: oral gavage. From the text:
Surgical Implantation of the Telemetry Device and ECG Leads. Anesthesia is introduced to dogs. Balanced gaseous anesthesia is used throughout the surgical procedure. Once anesthetized, animals are shaved and surgically scrubbed, encompassing surgical sites of the right inguinal area, chest and right lateral abdomen. Throughout the surgical procedure, animals are monitored for continuous assessment of vital signs. An incision is made along the right medial thigh and the femoral artery exposed by blunt dissection. Another incision is made in the lateral lumbar area cranial to the iliac crest for a tunneling needle to be passed subcutaneously from the incision on the medial thigh to the lumbar incision. A blood pressure catheter is passed through the needle from the lumbar incision and the needle removed. The femoral artery is ligated distally and incised to insert a catheter that is advanced until the tip resided in the femoral artery/abdominal aorta. The catheter is then secured by ligation. The incision in the lumbar area is enlarged and a subcutaneous pocket created in the left dorsal lumbar area to hold the transmitter body. The transmitter (e.g., Data Sciences International, St Paul, Minn., USA) is inserted into the subcutaneous pocket and secured body. Electrocardiography (ECG) leads are positioned. The incision is closed. Postoperative recovery lasts, e.g., about 2 weeks during which supplemental analgesics/antibiotics are administered as needed. Once the postoperative recovery period is complete, the animal is examined for study acceptability by the staff veterinarian and the implanted transmitter signal verified.
Study Design. […] ECGs, heart rate and arterial blood pressure data are recorded 1 hour prior to and then continuously for at least 6 hours following compound and/or vehicle administration. A blood sample for determination of compound plasma concentrations is collected from all subjects at approximately 6 h post-dose.
ECG Analysis. An ECG waveform morphology assessment, for the entire monitoring period, is completed for each dog by, e.g., a safety pharmacologist or veterinarian cardiologist. Standard ECG intervals (PR, RR, QRS and QT) are automatically measured by the data acquisition system and reported as, e.g., 10 min averages. The signals are collected with Data Sciences International Systems hardware. PR and QT manual overreads are conducted as appropriate. The manual measurements are completed from 50 mm s^−1 tracings at 30 min intervals. A mean of the three waveforms per time point are reported. QT intervals are corrected for heart rate (QTc) values by, e.g., using the formula by Funck-Bretano and Jaillon (1993).
Statistical Analysis. […] Dose-level averages (and accompanying standard deviation (s.d.) of these baseline-adjusted 10 min averages are calculated across study animals. ANOVA (e.g., repeated measures ANOVA) are applied to these baseline-adjusted averages. Pairwise t-tests are applied within the ANOVA to identify the presence of significant differences of the dose levels relative to vehicle. These t-tests are performed at a 0.05/2=0.025 significance level, so that the overall error rate across the comparisons in a given interval are not higher than 0.05. ECG interval data (reported at 30 min intervals) are analyzed using, e.g., repeated-measures ANOVA techniques similar to the systemic blood pressure and heart rate data described above.

A short description of data set [10]: Therapeutic plasma concentrations.
Data set [11] relates to gastric motility in canines. Kind of data set: Antral manometry (gastric motility) in canines. As to conditions: for motor dysfunction: canines. Type of data set: in vivo, canine. The protocol: Animals were fed an ad libitum chow diet (LabDiet®). After an overnight fast, the dogs were anesthetized with Pentothal (sodium thiopental, 11 mg/kg IV; Abbott Laboratories, North Chicago, Ill.) and maintained on 2-4% isoflurane (Abbott Laboratories) in oxygen (1 L/min) carrier gases delivered from a ventilator after endotracheal intubation. A cannula was placed in the jejunum 20 cm distal to the pylorus for the assessment of antral motility. Dogs were allowed to recover in their individual cages for 2 weeks. All experiments were performed after the dogs were completed recovered from the surgical procedure. The study was performed according to the National Institutes of Health Guidelines on the use of laboratory animals and approved by the Animal Care and Use Committee of the University of Texas Medical Branch at Galveston, Tex. To investigate the effect of the drugs on antral manometry, the study of each drug dose was done on three randomized sessions on separate days following the consumption of one can of solid dog food: 1) a Control session: In which animals received the vehicle only; 2) Dose I session: in which the lower dose of the drug was used; and 3) Dose II session: in which the higher dose of the drug was used (please refer to table for drug doses). Drug administration was performed according to Table 4, below. [table] Antral manometry was performed as follows. Following an overnight fast, an intraluminal water-perfused manometry catheter was inserted into the antrum through the jejunal cannula. Antral manometry recording was initiated after the consumption of one can of solid food and continued for 3 hours. The catheter contained 3 manometric sensors at a 1 cm interval. Dogs were given 10 minutes of accommodation, prior to the start of the recording. For data analysis, motility index (MI), defined as the integrated area (area under curve—AUC) between baseline and contractions per hour, was calculated. For statistical analysis, the Student's t-test was used for assessment of individual differences between groups (High dose, low dose of each drug) compared to control—Microsoft® Excel 2002). All values are expressed as mean±SEM. Significance was considered when p value was ≦0.05.

The test system of data set [12] is gastric emptying in rats. The data set is described as follows: Solid gastric emptying in rats. The data set is classed as in vivo, rat (Sprague-Dawley). As to conditions: preliminary.
For data set [13], the system named is gastric emptying in rats. Kind of data set: Solid gastric emptying in rats. The data set is classed as in vivo, rat (Sprague-Dawley). The protocol: Animals: […] The animals received a standard laboratory rat chow and tap water ad libitum. The rats were around 400 g at 14 weeks age when used in gastric emptying study. Drugs: S-Carbidopa was purchased from Sigma (#: C1335). Stock solution of S-Carbidopa was prepared at 5 mg/ml using DMSO as solvent. 80 μl stock solution was further diluted into 1 ml distilled water to make 0.4 mg/ml. The effect of S-Carbidopa (1 mg/kg) on solid gastric emptying was studied. Procedures: Male SD rats were involved in this study. Rats were fasted in cages with metal wired mesh for 24 hours with free access to water; S-carbidopa (1 mg/kg) was administered to the rats by oral gavage. Control rats were not administered S-carbidopa. 15 minutes following administration, rats were given access to 2 g of rat chow pellets for ten minutes. All rats completely ingested the chow within the 10 minute time frame. Rats were sacrificed by sodium pentobarbital (100 mg/kg) overdose 90 min after feeding. The stomach was surgically isolated and removed. Gastric contents were recovered from the stomach, air dried for 48 hours and then weighed. Solid gastric emptying was calculated according to the following formula: Gastric emptying (%)=[1−(dried gastric content in g)/2 g]×100. All values are expressed as mean±SEM.

In general, Ki refers to the equilibrium dissociation constant of an inhibitor or competing ligand from its target. Usually inhibition stands for how much of the control response was suppressed.

Sequence of D3 (P35462 whole entry): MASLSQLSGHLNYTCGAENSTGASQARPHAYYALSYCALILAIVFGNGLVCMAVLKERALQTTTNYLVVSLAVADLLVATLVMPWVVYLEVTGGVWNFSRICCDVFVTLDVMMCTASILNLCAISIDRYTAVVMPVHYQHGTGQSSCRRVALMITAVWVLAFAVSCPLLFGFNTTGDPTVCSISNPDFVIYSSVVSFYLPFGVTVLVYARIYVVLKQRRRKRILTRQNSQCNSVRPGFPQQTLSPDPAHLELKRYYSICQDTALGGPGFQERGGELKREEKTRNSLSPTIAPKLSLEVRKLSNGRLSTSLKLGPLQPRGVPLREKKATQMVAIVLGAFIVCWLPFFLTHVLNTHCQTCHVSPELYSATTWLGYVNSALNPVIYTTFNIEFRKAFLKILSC
Sequence of hERG channel (Q12809 whole entry): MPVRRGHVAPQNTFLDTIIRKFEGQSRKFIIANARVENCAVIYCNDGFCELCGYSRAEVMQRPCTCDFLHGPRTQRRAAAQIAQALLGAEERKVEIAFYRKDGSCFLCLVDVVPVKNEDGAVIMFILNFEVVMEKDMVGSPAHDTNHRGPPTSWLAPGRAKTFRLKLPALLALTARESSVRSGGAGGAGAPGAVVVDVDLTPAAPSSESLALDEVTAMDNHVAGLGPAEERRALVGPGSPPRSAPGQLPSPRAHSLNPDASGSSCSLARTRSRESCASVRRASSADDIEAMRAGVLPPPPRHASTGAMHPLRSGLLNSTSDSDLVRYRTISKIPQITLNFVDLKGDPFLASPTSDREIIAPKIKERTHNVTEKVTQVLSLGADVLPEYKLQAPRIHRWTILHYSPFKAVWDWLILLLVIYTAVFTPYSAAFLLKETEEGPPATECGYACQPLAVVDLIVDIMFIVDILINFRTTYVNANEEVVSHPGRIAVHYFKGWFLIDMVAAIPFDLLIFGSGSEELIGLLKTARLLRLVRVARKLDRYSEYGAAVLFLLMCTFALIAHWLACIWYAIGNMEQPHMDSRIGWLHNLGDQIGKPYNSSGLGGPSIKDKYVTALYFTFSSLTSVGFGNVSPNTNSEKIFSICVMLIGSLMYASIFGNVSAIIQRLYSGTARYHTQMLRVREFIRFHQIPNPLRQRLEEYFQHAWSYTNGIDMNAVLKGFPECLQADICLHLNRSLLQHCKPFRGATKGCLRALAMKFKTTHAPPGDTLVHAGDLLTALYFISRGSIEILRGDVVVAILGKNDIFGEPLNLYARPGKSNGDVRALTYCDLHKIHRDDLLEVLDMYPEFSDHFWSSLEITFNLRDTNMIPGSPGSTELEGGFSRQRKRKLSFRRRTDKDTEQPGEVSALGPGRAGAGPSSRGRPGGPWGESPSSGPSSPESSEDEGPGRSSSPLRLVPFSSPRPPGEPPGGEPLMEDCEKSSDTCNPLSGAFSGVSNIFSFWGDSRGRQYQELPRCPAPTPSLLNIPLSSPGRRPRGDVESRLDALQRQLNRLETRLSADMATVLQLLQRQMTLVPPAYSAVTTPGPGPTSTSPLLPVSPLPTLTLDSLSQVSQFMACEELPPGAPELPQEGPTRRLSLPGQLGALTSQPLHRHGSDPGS
Sequence of 5HT3 (P46098 24-478, species assumed): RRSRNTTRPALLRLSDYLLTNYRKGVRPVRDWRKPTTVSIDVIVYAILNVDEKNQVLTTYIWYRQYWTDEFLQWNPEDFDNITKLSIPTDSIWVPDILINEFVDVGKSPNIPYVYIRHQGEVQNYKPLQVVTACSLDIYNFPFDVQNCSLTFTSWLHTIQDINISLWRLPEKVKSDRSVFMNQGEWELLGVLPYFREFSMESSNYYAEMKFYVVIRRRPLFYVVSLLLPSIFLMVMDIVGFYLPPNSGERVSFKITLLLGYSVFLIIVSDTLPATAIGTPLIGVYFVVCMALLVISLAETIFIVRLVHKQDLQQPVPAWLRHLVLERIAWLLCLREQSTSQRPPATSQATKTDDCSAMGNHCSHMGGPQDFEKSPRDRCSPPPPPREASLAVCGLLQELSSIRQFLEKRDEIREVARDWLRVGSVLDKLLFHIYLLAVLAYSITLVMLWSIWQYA
Sequence of 5HT4 (Q13639 whole entry, species assumed): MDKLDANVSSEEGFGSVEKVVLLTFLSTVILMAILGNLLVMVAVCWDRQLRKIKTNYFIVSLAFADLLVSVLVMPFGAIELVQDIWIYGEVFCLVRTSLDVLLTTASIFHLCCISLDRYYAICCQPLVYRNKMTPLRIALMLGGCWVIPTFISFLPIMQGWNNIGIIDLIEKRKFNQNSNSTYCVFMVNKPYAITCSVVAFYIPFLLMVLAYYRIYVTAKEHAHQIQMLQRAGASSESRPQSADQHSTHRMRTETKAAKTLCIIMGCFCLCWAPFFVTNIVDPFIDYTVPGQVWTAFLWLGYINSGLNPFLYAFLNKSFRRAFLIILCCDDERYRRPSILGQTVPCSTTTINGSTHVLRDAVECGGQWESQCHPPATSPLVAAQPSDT
Sequence of dopamine D2 receptor (P14416 whole entry, species assumed): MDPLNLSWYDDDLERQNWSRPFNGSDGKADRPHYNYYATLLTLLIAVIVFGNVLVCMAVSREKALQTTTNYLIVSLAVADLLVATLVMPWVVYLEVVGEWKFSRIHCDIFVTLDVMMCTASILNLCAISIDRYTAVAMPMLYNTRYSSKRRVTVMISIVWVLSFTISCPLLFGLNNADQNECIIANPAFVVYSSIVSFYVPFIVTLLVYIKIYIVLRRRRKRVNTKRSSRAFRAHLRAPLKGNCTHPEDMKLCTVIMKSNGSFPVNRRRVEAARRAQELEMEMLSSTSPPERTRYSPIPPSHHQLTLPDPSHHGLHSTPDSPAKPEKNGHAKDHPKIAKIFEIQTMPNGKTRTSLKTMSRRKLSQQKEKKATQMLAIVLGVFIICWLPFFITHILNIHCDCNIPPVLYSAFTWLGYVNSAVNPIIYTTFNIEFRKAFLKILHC
Sequence of H1 (P35367 whole entry): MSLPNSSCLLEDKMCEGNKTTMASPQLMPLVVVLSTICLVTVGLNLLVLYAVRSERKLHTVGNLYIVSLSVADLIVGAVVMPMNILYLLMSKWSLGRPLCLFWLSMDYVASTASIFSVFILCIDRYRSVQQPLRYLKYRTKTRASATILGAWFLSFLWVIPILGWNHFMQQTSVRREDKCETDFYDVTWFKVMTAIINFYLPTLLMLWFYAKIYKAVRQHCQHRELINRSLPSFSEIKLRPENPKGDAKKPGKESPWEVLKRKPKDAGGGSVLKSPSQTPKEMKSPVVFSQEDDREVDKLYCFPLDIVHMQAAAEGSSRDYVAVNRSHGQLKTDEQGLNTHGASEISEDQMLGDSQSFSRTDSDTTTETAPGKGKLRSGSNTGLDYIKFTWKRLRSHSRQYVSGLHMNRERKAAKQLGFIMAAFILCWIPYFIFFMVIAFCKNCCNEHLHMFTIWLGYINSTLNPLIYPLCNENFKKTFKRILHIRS

Consider `CCN(CC)CCNC(=O)c1cc(Cl)c(N)cc1OC` [Metoclopramide], for which the Ki in [1] was 64 nM; in data set [2], 16 nM.
In turn, `CS(=O)(=O)c1ccc2c(c1)N(CCCN1CCC(C(=O)O)CC1)c1ccccc1S2` [Metopimazine acid] displayed a Ki in data set [2] above 100 nM. In data set [3], this compound gave a Ki of 210 nM. The compound further gave an inhibitory constant (Ki) in [4] of 370 nM. For the same compound, the “Radioligand Binding Affinity (Ki, nM) 5HT3” value in [5] is reported as “Inactive”. In addition, the “Radioligand Binding Affinity (Ki, nM) 5HT4” value in [6] is recorded as “Inactive”. In [7], the Ki stood at 140 nM. Moreover, in [8], the inhibition at 0.1 µM stood at 0.2%, the inhibition at 1 µM is 4%, the inhibition at 10 µM is 11% and the IC50 is above 10000 nM. In data set [9], the “QTc intervals as compared to vehicle-administered animals” value is “no significant increases”. Further, the Therapeutic plasma concentrations in data set [10] fell in the range of 300 to 900 nM.
On to `CS(=O)(=O)c1ccc2c(c1)N(CCCN1CCC(C(N)=O)CC1)c1ccccc1S2` [Metopimazine, 1-[3-[2-(methylsulfonyl)-10H-phenothiazin-10-yl]propyl]-piperidine-4-carboxamide], for which the Ki came out at 0.07 nM in data set [1], 0.61 nM in data set [2], 1.9 nM in data set [3] and 15 nM in data set [4]. The “Radioligand Binding Affinity (Ki, nM) 5HT3” value in data set [5] is on record as “Inactive”. The “Radioligand Binding Affinity (Ki, nM) 5HT4” value in data set [6] is listed as “Inactive”. Besides, in data set [8], the inhibition at 0.1 µM was 4.5%. Besides, the inhibition at 1 µM in data set [8] stood at 32%. Moreover, the inhibition at 10 µM in [8] was 82%. Moreover, the IC50 in data set [8] is around 3000 nM. In addition, the motor dysfunction entry in data set [11] is reported as “no motor dysfunction was observered”. Moreover, the “QTc intervals as compared to vehicle-administered animals” value in data set [9] is on record as “no significant increases”. The “increase in gastric emptying as compared to vehicle control” value in data set [12] (3 mg/kg) is recorded as “about 40%”; in [12] (10 mg/kg), “about 18%”; in data set [12] (pooling the 3 mg/kg and 10 mg/kg doses), “about 20%”.
For the compound `C[C@@](Cc1ccc(O)c(O)c1)(NN)C(=O)O` [S-Carbidopa, (2S)-3-(3,4-dihydroxyphenyl)-2-hydrazino-2-methylpropanoic acid], in [11] (1 mg/kg IV, 15 min prior to meal, vs control, p=0.05), the “motility index (MI), antral manometry” value was “robustly increased MI in all three of the channels tested”. Moreover, the motor dysfunction entry in data set [11] is “no motor dysfunction was observered”; in [13] (rats), “no motor dysfunction was observed”. In addition, the “Gastric emptying (%), mean of the 3 rats” value in data set [13] (1 mg/kg oral gavage, 90 min after feeding) is 68.2%. The “solid gastric emptying compared to control rats” value in data set [13] (1 mg/kg, rats, initial results) is “improves solid gastric emptying”. Further, the “Gastric emptying (%)” value in data set [13] (individual rat, 1 mg/kg oral gavage, 90 min after feeding) was 55% and 62% and 87.5%. In addition, the stomach content in data set [13] (individual rat, 1 mg/kg oral gavage, dried gastric content (g) 90 min after 2 g chow) was 0.9 and 0.76 and 0.25. Also, in [9], the “QTc intervals as compared to vehicle-administered animals” value is “no significant increases”.
Take `CN(CCOc1ccc(NS(C)(=O)=O)cc1)CCc1ccc(NS(C)(=O)=O)cc1` [dofetilide]: the “incidence of premature ventricular contractions, T-wave abnormalities, and right bundle branch block” value in [9] (0.3 mg/kg oral gavage) is “increases”. Moreover, the QTc intervals entry in data set [9] (0.3 mg/kg oral gavage, post-dose period of 1-6 hours) was “increased”.
Turning to `Cl.NCCc1ccc(O)c(O)c1` [dopamine hydrochloride, Dopamine hydrochloride], the “motility index (MI), antral manometry” value in data set [11] (50 mg/canine IV, immediately before meal, p=0.06) was “decreased MI in all channels”.
